These are literature values, as cited in patent US20040126339A1, “Sunscreen composition and methods for manufacturing and using a sunscreen composition” (priority 2002, published 2004).

For the series the following is noted: in vivo.

Turning to “Poly(vinylpyrrolidone/1-eicosene) [PVPE]”, the dermal toxicity result was “no demonstrable dermal toxicity”. Regarding “Poly(vinylpyrrolidone/1-hexadecene) [PVPH]”, the dermal toxicity entry was “no demonstrable dermal toxicity”.
